Here are results for 57 compounds from patent publication US11116757B2 (priority 2015, dated 2021).

Broadly, the IC50 is the concentration that inhibits the measured activity by half.

In one test the target is DCN1-UBC12 interaction (Homo sapiens (Human), UniProt Q96GG9). Briefly: biochemical. Type of test: binding. The settings on record: Table 4, commercial compounds; read-out: TR-FRET IC50. (In TR-FRET formats the signal depends on donor and acceptor labels being close together.)
DCN1-UBC12 interaction, sequence (Q96GG9 60-248 limits assumed): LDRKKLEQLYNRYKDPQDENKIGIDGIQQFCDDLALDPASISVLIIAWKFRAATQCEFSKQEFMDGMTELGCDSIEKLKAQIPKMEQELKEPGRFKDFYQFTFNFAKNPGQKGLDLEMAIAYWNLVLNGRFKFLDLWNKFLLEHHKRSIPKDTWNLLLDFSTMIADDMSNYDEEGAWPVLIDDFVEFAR
Regarding `O=C(Nc1ccccc1Br)C1CCN(C(=O)c2ccccc2Cl)CC1` [C17], the IC50 is more than 67.6 µM. On to `O=C(Nc1cccc(C(F)(F)F)c1)C1CCN(C(=O)/C=C/c2ccccc2)CC1` [C57], for which the IC50 is more than 67.6 µM. The same measure, in the same setting: the value for `O=C(Nc1ccc(C(F)(F)F)cc1)C1CCN(C(=O)c2ccccc2F)CC1` [C65] was more than 68.1 µM; that for `O=C(Nc1cccc(C(F)(F)F)c1)C1CCN(C(=O)Cc2ccccc2)CC1` [C12] was more than 65.9 µM; that for `CCC1CN(C(=O)N2CCC(C(=O)Nc3cccc(OC)c3)CC2)c2ccccc2O1` (stereo not drawn) [C54] was more than 67.6 µM.

As to `Cc1ccc(C(=O)N2CCC(C(=O)Nc3ccc(C)c(C)c3)CC2)cc1` [C25], the half-inhibitory concentration (IC50) was more than 67.6 µM.

Consider `COc1ccc(NC(=O)C2CCN(C(=O)N3CCOc4ccccc43)CC2)cc1` [C53], for which the concentration for half-maximal inhibition (IC50) was more than 67.6 µM. Regarding `O=C(Nc1cccc(Br)c1)C1CCN(C(=O)c2cccc(Cl)c2)CC1` [C3], the IC50 was found to be 22.4 µM. Same read-out and setting: then `O=C(Nc1cccc(C(F)(F)F)c1)C1CCN(C(=O)c2ccco2)CC1` [C68], with more than 75.7 µM.

The same test, now with this note: Table 6, commercial compounds; read-out: TR-FRET IC50.
With `CCCN1CCN(C(=O)c2cnn(-c3nccc(-c4cccs4)n3)c2C2CC2)CC1` [E58], the IC50 is more than 67.6 µM. Still for that read-out and setting: the value for `CCCN1CCN(C(=O)c2cnn(-c3ncc(C)c(-c4cccs4)n3)c2COC)CC1` [E11] was 26 µM; that for `COCCN1CCN(C(=O)c2cnn(-c3nccc(-c4cc(C)sc4C)n3)c2COC)CC1` [E8] was 22.8 µM.

In the case of `CCN(CC)CCNC(=O)c1cnn(-c2nccc(-c3cccs3)n2)c1C(C)C` [E19], the half-inhibitory concentration (IC50) worked out at 42.1 µM. The same measure, in the same setting: the value for `Cc1c(C(=O)N2CCN(C)CC2)cnn1-c1nccc(-c2cccs2)n1` [E49] was more than 67.6 µM. Consider `CCN(CC)CCNC(=O)c1cnn(-c2ncc(C)c(-c3cccs3)n2)c1C1CC1` [E28], for which the IC50 was more than 37.4 µM. The same measure, in the same setting: then `C=CCN(CC=C)C(=O)c1cnn(-c2nccc(-c3cccs3)n2)c1COC` [E39], with more than 67.6 µM; and `CCN(CC)C(=O)c1cnn(-c2ncc(C)c(-c3cccs3)n2)c1C1CC1` [E26], with 65.2 µM.

The same test, now with this note: Table 7, commercial compounds; read-out: TR-FRET IC50.
Take `Cc1cccc(C(=O)NC2C(=O)Nc3c(c(C)nn3C)C2c2cccc(F)c2)c1` (stereo not drawn) [F15]: the half-maximal inhibitory concentration (IC50) is more than 67.6 µM. Same read-out and setting: then `CCCOc1cc(C2c3c(C)nn(C)c3NC(=O)C2NC(=O)c2ccc(Cl)cc2)ccc1OC` (stereo not drawn) [F9], with more than 67.6 µM.

The same test, now with this note: read-out: TR-FRET IC50.
With `CCCC(C)N1CCC(N(Cc2ccccc2)C(=O)Nc2ccc(OC)cc2OC)CC1` (stereo not drawn) [A197], the IC50 is more than 111 µM.

As to `CCCC(C)N1CCC(N(Cc2ccccc2)C(=O)Nc2cc(OC)ccc2Cl)CC1` (stereo not drawn) [A288], the half-maximal inhibitory concentration (IC50) was more than 72.9 µM. Still for that read-out and setting: then `O=C(Nc1cccc(C(F)(F)F)c1)N1CCN(Cc2cccnc2)CC1` [B116], with more than 74.8 µM. Same read-out and setting: then `C=CS(=O)(=O)NCc1ccccc1CN(C(=O)Nc1cccc(C(F)(F)F)c1)C1CCN(C(C)CCC)CC1` (stereo not drawn) [drawing 850], with less than 0.01 µM; and `CCCN1CCC(N(CCC)C(=O)Nc2cccc(C(F)(F)F)c2)CC1` [A167, 1-Propyl-1-(1-Propylpiperidin-4-yl)-3-(3-(Trifluoromethyl)Phenyl)Urea], with 10.5 µM. On the same count and under the same terms, the value for `O=C(c1cccc(F)c1)N1CCC(c2nc3ccccc3s2)CC1` [D12] was 31.4 µM; that for `CCCC(C)N1CCC(N(Cc2cccnc2)C(=O)Nc2ccc(F)c(C(F)(F)F)c2)CC1` (stereo not drawn) [A55] was 0.303 µM. For the compound `CCCC(C)N1CCC(N(Cc2ccccc2)C(=O)Nc2ccc(Cl)cc2C#N)CC1` (stereo not drawn) [A141], the IC50 is 4.22 µM.

Regarding `CC(c1cccc(O)c1)N1CCC(N(Cc2ccccc2)C(=O)Nc2cc(F)cc(C(F)(F)F)c2)CC1` (stereo not drawn) [A218], the IC50 was more than 24 µM.

Take `C=CS(=O)(=O)NCCCN(C(=O)Nc1cccc(C(F)(F)F)c1)C1CCN(C(C)CCC)CC1` (stereo not drawn) [A220]: the IC50 was more than 24.5 µM. Regarding `CCCC(C)N1CCC(N(Cc2ccccc2)C(=O)Nc2ccc(OC)cc2C)CC1` (stereo not drawn) [A275], the concentration for half-maximal inhibition (IC50) is more than 68.6 µM. The same measure, in the same setting: then `CCCC(C)N1CCC(N(Cc2ccccc2)C(=O)Nc2cccc(OC(C)C)c2)CC1` (stereo not drawn) [A132], with 3.17 µM; and `CCOC(=O)Cc1ccc(NC(=O)N(Cc2ccco2)C2CCN(C(C)=O)CC2)cc1` [B75], with more than 67.6 µM.

In the case of `O=C(Nc1cccc(C(F)(F)F)c1)NC1CCN(C(=O)c2ccccc2)CC1` [A306, 1-(1-Benzoylpiperidin-4-yl)-3-(3-(Trifluoromethyl)Phenyl)Urea], the IC50 is more than 98.1 µM. Still for that read-out and setting: then `CCCC(C)N1CCC(N(Cc2ccccc2)C(=O)Nc2cc(Cl)ccc2Cl)CC1` (stereo not drawn) [A152], with 6.27 µM. Same read-out and setting: the value for `CCCC(C)N1CCC(N(Cc2ccccc2)C(=O)Nc2cccc(N(C)C)c2)CC1` (stereo not drawn) [A112] was 2.3 µM; that for `CCCC(C)N1CCC(N(Cc2ccccc2)C(=O)Nc2ccc(O)c(Cl)c2)CC1` (stereo not drawn) [A300] was more than 85.8 µM; that for `O=C(Nc1ccc(Br)cc1Cl)NC1CCN(Cc2ccccc2)CC1` [B50] was more than 67.6 µM. The same measure, in the same setting: the value for `CC(c1ccc(Cl)cc1)N1CCC(N(Cc2ccccc2)C(=O)Nc2cc(F)cc(C(F)(F)F)c2)CC1` (stereo not drawn) [A216] was more than 23.8 µM; that for “1-(1-((1H-Imidazol-4-yl)Methyl)Piperidin-4-yl)-1-Benzyl-3-(3-(Trifluoromethyl)Phenyl)Urea [A184]” was 29 µM.

For `CCCC(C)N1CCC(N(Cc2ccccc2)C(=O)Nc2ccc3c(c2)OC(F)(F)O3)CC1` (stereo not drawn) [A52], the IC50 came to 0.281 µM. Same read-out and setting: the value for `Cc1cc(C)cc(C(=O)N2CCC(c3nc4ccccc4s3)CC2)c1` [D10] was 25.4 µM. Regarding `CCCC(C)N1CCC(N(Cc2ccccc2)C(=O)Nc2ccc(F)cc2)CC1` (stereo not drawn) [A269], the IC50 is more than 67.2 µM. Same read-out and setting: then `CCN1CCC(N(Cc2ccco2)C(=O)Nc2ccc(C)c(Cl)c2)CC1` [B6], with 6.85 µM. With `O=C(Nc1cccc(C(F)(F)F)c1)N[C@H]1CCN(Cc2ccccc2)C[C@@H]1OC(=O)Nc1cccc(C(F)(F)F)c1` [A249], the concentration for half-maximal inhibition (IC50) is more than 59.6 µM. Still for that read-out and setting: then `CCCCN1CCC(N(Cc2ccccc2)C(=O)Nc2ccc(C)c(Cl)c2)CC1` [A28], with 0.166 µM; and `COc1cccc(NC(=O)NC2CCN(Cc3ccccc3)CC2)c1` [B61], with more than 67.6 µM.

For the compound `CCc1ccc(NC(=O)NC2CCN(C(C)C)CC2)cc1` [B62], the IC50 was more than 67.6 µM. For `COc1cccc(C(=O)N2CCC(c3nc4ccccc4s3)CC2)c1` [D14], the IC50 amounted to 66.4 µM.

As for `O=C(Nc1cccc(-n2cccc2)c1)NC1CCN(Cc2ccccc2)CC1` [A282, 1-(3-(1H-Pyrrol-1-yl)Phenyl)-3-(1-Benzylpiperidin-4-yl)Urea], the half-inhibitory concentration (IC50) is more than 71.3 µM. The same measure, in the same setting: the value for `CC(=O)N1CCC(N(Cc2ccc(C)o2)C(=O)Nc2cc(Cl)ccc2Cl)CC1` [B89] was more than 67.6 µM; that for `Cc1cccc(CN2CCC(NC(=O)Nc3cccc(C(F)(F)F)c3)CC2)c1` [A155, 1-(1-(3-Methylbenzyl)Piperidin-4-yl)-3-(3-(Trifluoromethyl)Phenyl)Urea] was 6.77 µM. On the same count and under the same terms, the value for `CC(C1CCCC1)N1CCC(N(Cc2ccccc2)C(=O)Nc2cc(F)cc(C(F)(F)F)c2)CC1` (stereo not drawn) [A279] was more than 7.78 µM; that for `CCCC(C)N1CCC(N(Cc2ccccc2)C(=O)Nc2cccc(O)c2)CC1` (stereo not drawn) [A177] was 14.5 µM. Regarding `CCCC1CCC(N(Cc2ccccc2)C(=O)c2cccc(C(F)(F)F)c2)CC1` (stereo not drawn) [A193], the 50% inhibitory concentration (IC50) was less than 0.0029 µM. The same measure, in the same setting: then `COc1ccc(C(=O)N2CCC(c3nc4ccccc4s3)CC2)cc1OC` [D19], with more than 62.9 µM; and `O=C(Nc1cc(F)cc(C(F)(F)F)c1)N(Cc1ccccc1)C1CCN(Cc2cnccn2)CC1` [A226], with more than 26.6 µM; and `CCCCCN1CCC(N(Cc2ccccc2)C(=O)Nc2cc(F)cc(C(F)(F)F)c2)CC1` [A124], with 1.59 µM.
